# According to patent US8501946B2 (Glaxo Group Limited, priority 2009, dated 2013):
# Target: T1, human recombinant P2X7 receptors (Homo sapiens, UniProt Q99572)
# T1 construct: expressed in transfected cells
# T1 sequence (Q99572 1-595): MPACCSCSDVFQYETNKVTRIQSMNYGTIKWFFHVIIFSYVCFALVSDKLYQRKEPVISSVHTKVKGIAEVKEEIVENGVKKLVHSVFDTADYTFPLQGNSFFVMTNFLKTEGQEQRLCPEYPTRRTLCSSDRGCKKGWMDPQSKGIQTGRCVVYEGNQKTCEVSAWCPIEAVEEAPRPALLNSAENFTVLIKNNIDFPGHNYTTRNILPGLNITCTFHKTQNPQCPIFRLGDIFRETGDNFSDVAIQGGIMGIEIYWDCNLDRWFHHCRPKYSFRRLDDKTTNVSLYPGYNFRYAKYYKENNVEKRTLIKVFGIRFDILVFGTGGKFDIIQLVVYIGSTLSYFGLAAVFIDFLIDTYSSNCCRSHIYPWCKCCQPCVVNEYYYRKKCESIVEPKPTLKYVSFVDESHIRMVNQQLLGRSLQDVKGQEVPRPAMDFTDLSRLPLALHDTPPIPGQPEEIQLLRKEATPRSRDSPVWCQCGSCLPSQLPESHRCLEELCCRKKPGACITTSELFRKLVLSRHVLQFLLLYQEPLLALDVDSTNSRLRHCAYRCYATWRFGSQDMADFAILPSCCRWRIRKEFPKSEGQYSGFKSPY
# Assay: Ethidium Accumulation Assay 1 (HEK293 cells, ATP-induced ethidium uptake)
# Type: cell-based
# Conditions: HEK293 cells expressing human P2X7; 1 mM ATP; sometimes mean of more than one measurement; read-out: Assay 1 (antagonist pIC50 for blocking ATP responses) (converted)
# Experimental: Eithidium Accumulation Assay 1
# Studies were performed using NaCl assay buffer of the following composition: 140 mM NaCl, 10 mM HEPES [4-(2-hydroxyethyl)-1-piperazine-1-ethanesulfonic acid], 5 mM N-methyl-D-glucamine, 5.6 mM KCl, 10 mM D-glucose, 0.5 mM CaCl2 (pH 7.4).
# Human Embryonic Kidney (HEK) 293 cells, stably expressing human recombinant P2X7 receptors, were grown in poly-D-lysine pretreated 96 well plates for 18-24 hours.
# The cells were washed twice with 350 μl of the assay buffer, before addition of 50 μl of the assay buffer containing the putative P2X7 receptor antagonist compound. (A small amount of dimethyl sulfoxide, for initially dissolving the compound, is optionally used and present in this 50 μl test compound sample.) The cells were then incubated at room temperature (19-21° C.) for 30 min before addition of ATP and ethidium (100 μM final assay concentration). The ATP concentration was chosen to be close to the EC80 for the receptor type and was 1 mM for studies on the human P2X7 receptor. Incubations were continued for 8 or 16 min and were terminated by addition of 25 μl of 1.3M sucrose containing 4 mM of the P2X7 receptor antagonist Reactive Black 5 (Aldrich). […] Antagonist pIC50 values for blocking ATP responses were determined using iterative curve fitting techniques.
row,Compound,IC50
1,"O=C(c1cccc(Cl)c1Cl)N1CCn2c(nnc2-c2ccncn2)C1 [Example 62, 7-[(2,3-dichlorophenyl)carbonyl]-3-(4-pyrimdiinyl)-5,6,7,8-tetrahydro[1,2,4]triazolo [4,3-a]pyrazine]",< 10 nM
2,"O=C(c1ccc(Cl)cc1C(F)(F)F)N1CCn2c(nnc2-c2cnccn2)C1 [Example 142, 7-{[4-chloro-2-(trifluoromethyl)phenyl]carbonyl}-3-(2-pyrazinyl)-5,6,7,8-tetrahydro[1,2,4]triazolo[4,3-a]pyrazine]",< 100 nM
3,"O=C(c1cccc(C(F)(F)F)c1Cl)N1CCn2c(nnc2-c2cccc(F)n2)C1 [Example 53, 7-{[2-chloro-3-(trifluoromethyl)phenyl]carbonyl}-3-(6-fluoro-2-pyridinyl)-5,6,7,8-tetrahydro[1,2,4]triazolo [4,3-a]pyrazine]",< 10 nM
4,"O=C(c1ccc(F)cc1Cl)N1CCn2c(nnc2-c2cnccn2)C1 [Example 85, 7-[(2-chloro-4-fluorophenyl)carbonyl]-3-(2-pyrazinyl)-5,6,7,8-tetrahydro[1,2,4]triazolo[4,3-a]pyrazine]",< 10 nM
5,"CN(C)c1nnc2n1CCN(C(=O)c1cccc(C(F)(F)F)c1Cl)C2 [Example 20, 7-{[2-chloro-3-(trifluoromethyl)phenyl]carbonyl}-N,N-dimethyl-5,6,7,8-tetrahydro[1,2,4]triazolo [4,3-a]pyrazine-3-amine]",< 100 nM
6,"CCCc1nnc2n1CCN(C(=O)c1cccc(C(F)(F)F)c1Cl)C2 [Example 134, 7-{[2-chloro-3-(trifluoromethyl)phenyl]carbonyl}-3-propyl-5,6,7,8-tetrahydro[1,2,4]triazolo[4,3-a]pyrazine]",< 100 nM
7,"O=C(c1ccc(Cl)c(Cl)c1)N1CCn2c(nnc2-c2cnccn2)C1 [Example 115, 7-[(3,4-dichlorophenyl)carbonyl]-3-(2-pyrazinyl)-5,6,7,8-tetrahydro[1,2,4]triazolo[4,3-a]pyrazine]",< 100 nM
8,"O=C(c1cccc(Cl)c1Cl)N1CCn2c(nnc2-c2cccnc2)C1 [Example 61, 7-[(2,3-dichlorophenyl)carbonyl]-3-(3-pyridinyl)-5,6,7,8-tetrahydro[1,2,4]triazolo [4,3-a]pyrazine]",< 10 nM
9,"O=C(c1ccccc1Cl)N1CCn2c(nnc2-c2ccc(F)cc2)C1 [Example 119, 7-[(2-chlorophenyl)carbonyl]-3-(4-fluorophenyl)-5,6,7,8-tetrahydro[1,2,4]triazolo[4,3-a]pyrazine]",< 100 nM
10,"O=C(c1cccc(C(F)(F)F)c1F)N1CCn2c(nnc2-c2ccccn2)C1 [Example 91, 7-{[2-fluoro-3-(trifluoromethyl)phenyl]carbonyl}-3-(2-pyridinyl)-5,6,7,8-tetrahydro[1,2,4]triazolo [4,3-a]pyrazine]",< 10 nM
11,"O=C(c1cccc(C(F)(F)F)c1Cl)N1CCn2c(nnc2C2CC2)C1 [Example 133, 7-{[2-chloro-3-(trifluoromethyl)phenyl]carbonyl}-3-cyclopropyl-5,6,7,8-tetrahydro[1,2,4]triazolo[4,3-a]pyrazine]",< 100 nM
12,"CCc1nnc2n1CCN(C(=O)c1cccc(Cl)c1Cl)C2 [Example 5, 7-[(2,3-dichlorophenyl)carbonyl]-3-ethyl-5,6,7,8-tetrahydro[1,2,4]triazolo [4,3-a]pyrazine]",< 100 nM
13,"O=C(c1ccc(Cl)cc1Cl)N1CCn2c(nnc2-c2ccc(F)cc2)C1 [Example 100, 7-[(2,4-dichlorophenyl)carbonyl]-3-(4-fluorophenyl)-5,6,7,8-tetrahydro[1,2,4]triazolo [4,3-a]pyrazine]",< 100 nM
14,"COc1ccccc1-c1nnc2n1CCN(C(=O)c1ccc(F)cc1Cl)C2 [Example 127, 7-[(2-chloro-4-fluorophenyl)carbonyl]-3-[2-(methyloxy)phenyl]-5,6,7,8-tetrahydro[1,2,4]triazolo[4,3-a]pyrazine]",< 501 nM
15,"O=C(c1ccc(F)cc1Cl)N1CCn2c(Br)nnc2C1 [Example 109, 3-Bromo-7-[(2-chloro-4-fluorophenyl)carbonyl]-5,6,7,8-tetrahydro[1,2,4]triazolo[4,3-a]pyrazine]",< 501 nM
16,"O=C(c1ccc(Cl)cc1F)N1CCn2c(nnc2-c2ccccn2)C1 [Example 96, 7-[(4-chloro-2-fluorophenyl)carbonyl]-3-(2-pyridinyl)-5,6,7,8-tetrahydro[1,2,4]triazolo [4,3-a]pyrazine]",< 100 nM
17,"O=C(c1cccc(C(F)(F)F)c1Cl)N1CCn2c(Br)nnc2C1 [Example 1, 3-Bromo-7-{[2-chloro-3-(trifluoromethyl)phenyl]carbonyl}-5,6,7,8-tetrahydro[1,2,4]triazolo[4,3-a]pyrazine]",< 10 nM
18,"O=C(c1cccc(C(F)(F)F)c1Cl)N1CCn2c(nnc2-c2ccco2)C1 [Example 77, 7-{[2-chloro-3-(trifluoromethyl)phenyl]carbonyl}-3-(2-furanyl)-5,6,7,8-tetrahydro[1,2,4]triazolo[4,3-a]pyrazine]",< 10 nM
19,"O=C(c1cccc(C(F)(F)F)c1Cl)N1CCn2c(nnc2C2CCCCC2)C1 [Example 135, 7-{[2-chloro-3-(trifluoromethyl)phenyl]carbonyl}-3-cyclohexyl-5,6,7,8-tetrahydro[1,2,4]triazolo[4,3-a]pyrazine]",< 100 nM

# The next lines start with the values.
row,IC50,Compound
1,< 10 nM,"O=C(c1cccc(C(F)(F)F)c1Cl)N1CCn2c(nnc2-c2ncc(F)cc2F)C1 [Example 83, 7-{[2-chloro-3-(trifluoromethyl)phenyl]carbonyl}-3-(3,5-difluoro-2-pyridinyl)-5,6,7,8-tetrahydro[1,2,4]triazolo [4,3-a]pyrazine]"
2,< 100 nM,"Cn1cccc1-c1nnc2n1CCN(C(=O)c1cccc(Cl)c1Cl)C2 [Example 48, 7-[(2,3-dichlorophenyl)carbonyl]-3-(1-methyl-1H-pyrrol-2-yl)-5,6,7,8-tetrahydro[1,2,4]triazolo [4,3-a]pyrazine]"
3,< 10 nM,"O=C(c1cccc(Cl)c1Cl)N1CCn2c(nnc2-c2ccc(F)cn2)C1 [Example 54, 7-[(2,3-dichlorophenyl)carbonyl]-3-(5-fluoro-2-pyridinyl)-5,6,7,8-tetrahydro[1,2,4]triazolo [4,3-a]pyrazine]"
4,< 100 nM,"O=C(c1ccc(Cl)cc1Cl)N1CCn2c(nnc2-c2ccncn2)C1 [Example 102, 7-[(2,4-dichlorophenyl)carbonyl]-3-(4-pyrimidinyl)-5,6,7,8-tetrahydro[1,2,4]triazolo [4,3-a]pyrazine]"
5,< 100 nM,"O=C(c1ccc(F)cc1C(F)(F)F)N1CCn2c(nnc2-c2ccccn2)C1 [Example 94, 7-{[4-fluoro-2-(trifluoromethyl)phenyl]carbonyl}-3-(2-pyridinyl)-5,6,7,8-tetrahydro[1,2,4]triazolo [4,3-a]pyrazine]"
6,< 10 nM,"O=C(c1ccc(Cl)cc1Cl)N1CCn2c(nnc2-c2cnccn2)C1 [Example 92, 7-[(2,4-dichlorophenyl)carbonyl]-3-(2-pyrazinyl)-5,6,7,8-tetrahydro[1,2,4]triazolo[4,3-a]pyrazine]"
7,< 100 nM,"O=C(c1ccccc1Cl)N1CCn2c(nnc2-c2ccccn2)C1 [Example 75, 7-[(2-chlorophenyl)carbonyl]-3-(2-pyridinyl)-5,6,7,8-tetrahydro[1,2,4]triazolo [4,3-a]pyrazine]"
8,< 501 nM,"O=C(c1ccccc1Cl)N1CCn2c(nnc2-c2ccncn2)C1 [Example 116, 7-[(2-chlorophenyl)carbonyl]-3-(4-pyrimidinyl)-5,6,7,8-tetrahydro[1,2,4]triazolo[4,3-a]pyrazine]"
9,< 10 nM,"O=C(c1cccc(C(F)(F)F)c1Cl)N1CCn2c(nnc2-c2ccccc2O)C1 [Example 138, 2-(7-{[2-chloro-3-(trifluoromethyl)phenyl]carbonyl}-5,6,7,8-tetrahydro[1,2,4]triazolo[4,3-a]pyrazin-3-yl)phenol]"
10,< 10 nM,"O=C(c1cccc(C(F)(F)F)c1Cl)N1CCn2c(nnc2-c2ncccc2F)C1 [Example 52, 7-{[2-chloro-3-(trifluoromethyl)phenyl]carbonyl}-3-(3-fluoro-2-pyridinyl)-5,6,7,8-tetrahydro[1,2,4]triazolo [4,3-a]pyrazine]"
11,< 100 nM,"Cc1ccc(-c2nnc3n2CCN(C(=O)c2cccc(C(F)(F)F)c2Cl)C3)nc1 [Example 51, 7-{[2-chloro-3-(trifluoromethyl)phenyl]carbonyl}-3-(5-methyl-2-pyridinyl)-5,6,7,8-tetrahydro[1,2,4]triazolo [4,3-a]pyrazine]"
